Measurements from US12616716B2, “Wound healing dressings and formulations and methods of use thereof” (Polaroid IP B.V., priority 2023, dated 2026).
Converted amounts (≈) assume the structure as drawn. Marks after values point to notes of the source that are not given here.

Experiments:
[1] = system: mammalian cells (HDF and HaCaT); assay: Mammalian cell cytotoxicity (LDH and MTS), both cell populations; format: cell-based, human
Description: (§1) Primary Human Dermal Fibroblast (HDFs) and Human Keratinocyte (HaCaT) cells were selected for cytotoxicity and proliferation testing. HDFs were cultured in high glucose, no glutamine, no phenol red, Dulbecco's Modified Eagle Medium (DMEM) (GIBCO™). HDF media was further supplemented with 10% heat-inactivated fetal bovine serum (GIBCO™), 1% L-glutamine (GIBCO™) and 1% Penicillin-streptomycin (GIBCO™). HaCaTs cells were cultured in high glucose, no glutamine, no calcium DMEM (GIBCO™) supplemented with 10% heat inactivated foetal bovine serum, 1% L-glutamine, 1% Penicillin-streptomycin 1 mM calcium chloride (Sigma) throughout.
Mammalian cell populations were maintained in standard culture conditions at 37° C., 5% CO2 and >95% relative humidity. […] Once complete, the pellet of cells was re-suspended in 10 mL warmed culture media and the number of cells per mL was determined using a hemocytometer counting chamber. […]
(§2) The secretion of lactate dehydrogenase (LDH) enzyme was used for quantitatively measuring cell damage and cytotoxicity. As damage to the cell plasma membrane releases LDH into the cell culture media, the extracellular LDH in the media can be quantified by a coupled enzymatic reaction in which LDH catalyzes the conversion of lactate to pyruvate via NAD+ reduction to NADH. […]

S. aureus NRS 384 = assay: Mouse Staphylococcus aureus-induced wound infection model, bacteria load in wound site; conditions: 50 μL/wound site
[2] = system: all tested bacteria (Gram-positive and Gram-negative); assay: MIC / antimicrobial activity over the whole panel of tested bacteria
[3] = system: Human Keratinocyte (HaCaT) cells; assay: LDH cytotoxicity assay, HaCaT; format: cell-based; conditions: Table 16, summarized cell toxicity values
Description: as §1
(§3) Mammalian cell populations were maintained in standard culture conditions at 37° C., 5% CO2 and >95% relative humidity. Upon reaching 80% total confluency, cells were removed from the incubator, the culture media aspirated, and the monolayer washed with Dulbecco's […] (DPBS). After washing, 10 mL of 1% trypsin (GIBCO™) was added to the flask and incubated to facilitate the detachment of cells from the culture vessel. Following dissociation, 10 mL of culture media was then added to each flask to neutralize the trypsin enzyme activity. The total 20-mL flask volume was transferred into a universal tube and centrifuged at 400 rcf for 5 minutes. Once complete, the pellet of cells was re-suspended in 10 mL warmed culture media and the number of cells per mL was determined using a hemocytometer counting chamber. Cell suspensions were then adjusted to 5×10^4 cells/mL for HDFs and 1×10^5 cells/mL for HaCaTs. 100 μL of the cell suspension was added to each well of a sterile, cell-culture-treated 96-well microtiter plate. The plates were incubated in standard culture conditions for 16-24 hours to allow cellular adherence to the culture vessel. […] Culture plates were removed from the incubator, the media removed; and monolayers washed with 100 μL of warmed DPBS. The contents of the test item dilution plates were transferred to the culture plates. […]
as §2
(§4) Following incubation with the selected compounds, 50 μL of media from each well was transferred to the corresponding well of a fresh 96 well culture plate. The presence of Lactate dehydrogenase (LDH) was then quantified using the INVITROGEN™ CyQUANT™ LDH Cytotoxicity Assay, fluorescence kit. Total fluorescence was measured by reading the plates on a plate reader at an excitation of 560 nm and an emission of 590 nm. […]

[4] = system: Staphylococcus aureus MR1; assay: MIC, broth microdilution in MH broth with resazurin; format: cell-based; conditions: Table 17; modified Gompertz fit; only values marked ^ are reliable estimates, others unreliable
[5] = system: Enterococcus faecalis EF51299; assay: as above; format: cell-based; conditions: for MIC EF51299: Table 17, modified Gompertz fit, only values marked ^ are reliable estimates, others unreliable
[6] = system: Pseudomonas aeruginosa 27853; assay: as above; format: cell-based; conditions: Table 17; modified Gompertz fit; only values marked ^ are reliable estimates, others unreliable
Escherichia coli EC25922 [7] = assay: as above; format: cell-based; conditions: Table 17; modified Gompertz fit; only values marked ^ are reliable estimates, others unreliable
[8] = system: Enterococcus faecalis EF19433; assay: as above; format: cell-based; conditions: for MIC EF19433: Table 17, modified Gompertz fit, only values marked ^ are reliable estimates, others unreliable
[9] = system: Staphylococcus aureus MR1; assay: MBC, spot plating after 24 h in MH broth; conditions: Table 18; —: no activity observed
Description: (§5) To determine MBC compound concentrations breakpoints were estimated from MIC curves. Overnight cultures were set up as described above for all bacterial strains. The following day overnight cultures were adjusted to give a cell density of 5×10^5 cells per mL. Briefly, cultures were adjusted to the McFarland standard (0.08-0.12) and diluted (1:150). Adjusted cultures were inoculated into 96 well plates with 50 μL sterile Muller-Hinton broth (MHB) and 2 concentrations of each compound. […] MBC cultures were quantified by serial dilution in a 96 well plate and spot plating onto Muller-Hinton agar (MHA). MHA plates were incubated at 37° C. for 24 h and counted. Results are presented as CFU per mL.
(§6) To determine MBC compound concentrations, breakpoints were estimated from MIC curves. Overnight cultures were set up as described above for all bacterial strains. The following day overnight cultures were adjusted to give a cell density of 5×10^5 cells per mL. Briefly, cultures were adjusted to the McFarland standard (0.08-0.12) and diluted (1:150). Adjusted cultures were inoculated into 96 well plates with 50 μL sterile Muller-Hinton broth (MHB) and 2 concentrations of each compound. […] MBC cultures were quantified by serial dilution in a 96 well plate and spot plating onto Muller-Hinton agar (MHA). MHA plates were incubated at 37° C. for 24 hours and counted.
(§7) These compounds were tested for their MBC against a panel of ATCC and nosocomial bacteria.

[10] = system: Enterococcus faecalis EF19433; assay: MBC, spot plating after 24 h in MH broth; conditions: Table 18; —: no activity observed
Description: as §5, §6, §7

Escherichia coli EC25922 [11] = assay: MBC, spot plating after 24 h in MH broth; conditions: Table 18; —: no activity observed
Description: as §5, §6, §7

[12] = system: Klebsiella pneumoniae KL1; assay: MIC, broth microdilution in MH broth with resazurin; format: cell-based; conditions: Table 17; modified Gompertz fit; only values marked ^ are reliable estimates, others unreliable
[13] = system: Primary Human Dermal Fibroblast (HDFs); assay: LDH cytotoxicity assay, HDF; format: cell-based; conditions: Table 16, summarized cell toxicity values
Description: as §1, §3, §2, §4

[14] = system: Staphylococcus aureus ATCC 29213; assay: MBC, spot plating after 24 h in MH broth; conditions: Table 18; —: no activity observed
Description: as §5, §6, §7

[15] = system: Staphylococcus aureus ATCC 29213; assay: MIC, broth microdilution in MH broth with resazurin; format: cell-based; conditions: for MIC SA29213: Table 17, modified Gompertz fit, only values marked ^ are reliable estimates, others unreliable
[16] = system: Enterococcus faecalis EF51299; assay: MBC, spot plating after 24 h in MH broth; conditions: Table 18; —: no activity observed
Description: as §5
(§8) To determine MBC compound concentrations, breakpoints were estimated from MIC curves. Overnight cultures were set up as described above for all bacterial strains. The following day overnight cultures were adjusted to give a cell density of 5×10^5 cells per mL. Briefly, cultures were adjusted to the McFarland standard (0.08-0.12) and diluted (1:150). Adjusted cultures were inoculated into 96 well plates with 50 μL sterile Muller-Hinton broth (MHB) and 2 concentrations of each compound. […] MBC cultures were quantified by serial dilution in a 96 well plate and spot plating onto Muller-Hinton agar (MHA). MHA plates were incubated at 37° C. for 24 hours and counted. […]

[17] = system: Klebsiella pneumoniae KL1; assay: MBC, spot plating after 24 h in MH broth; conditions: Table 18; —: no activity observed
Description: as §5, §8

[18] = system: Staphylococcus aureus NRS384; assay: MIC, broth microdilution in MH broth with resazurin; format: cell-based; conditions: Table 21 (Example 8); Staphylococcus aureus NRS384; read-out: MIC Concentration

SMILES	Mammalian Cell Cytotoxicity, HaCaT [3] [µM]	MIC MR1 [4]	MIC EF51299 [5]	MIC PA27853 [6]	MIC EC25922 (Escherichia coli EC25922 [7]) [µM]	MIC EF19433 [8]	MBC MR1 [9] [µM]	MBC EF19433 [10] [µM]	MBC EC25922 (Escherichia coli EC25922 [11]) [µM]	MIC KL1 [12]	Mammalian Cell Cytotoxicity, HDF [13] [µM]	MBC SA29213 [14] [µM]	MIC SA29213 [15] [µM]	other results
CCCCCCCCCCCCCCCCCC[N+](C)(C)CCOCCO.[Br-] [Compound 39637]	–	–	–	–	–	–	–	–	–	–	–	–	–	concentration with almost total/complete absence of viable cells ([1]; HDF and HaCaT): 6.3 µM; concentration at which LDH secretion began to rapidly exceed control levels ([1]; HDF and HaCaT populations): 3.12 µM; Ig(CFU/wound site) 24 h p.i. (S. aureus NRS 384; Study I, 100 μM, once a day): 8.49 ± 0.30 Ig(CFU/wound site); ΔIg(CFU/wound site) vs 12 h infection control (S. aureus NRS 384; Study I, 100 μM, once a day): −0.23 ± 0.06 Ig(CFU/wound site); ΔIg(CFU/wound site) vs 24 h infection control (S. aureus NRS 384; Study I, 100 μM, once a day): −0.29 ± 0.30 Ig(CFU/wound site); Ig(CFU/wound site) 12 h p.i. (S. aureus NRS 384; Study I, 100 μM, once a day from 5 min p.i., inoculum 4.20E+06 CFU/wound site): 8.35 ± 0.06 Ig(CFU/wound site); Ig(CFU/wound site) 24 h p.i. (S. aureus NRS 384; Study II, 300 μM, once a day): 8.90 ± 0.10 Ig(CFU/wound site); ΔIg(CFU/wound site) vs 12 h infection control (S. aureus NRS 384; Study II, 300 μM, once a day): −0.45 ± 0.40 Ig(CFU/wound site); ΔIg(CFU/wound site) vs 24 h infection control (S. aureus NRS 384; Study II, 300 μM, once a day): 0.04 ± 0.10 Ig(CFU/wound site); Ig(CFU/wound site) 12 h p.i. (S. aureus NRS 384; Study II, 300 μM, once a day, inoculum 2.50E+06 CFU/wound site): 8.14 ± 0.40 Ig(CFU/wound site); Ig(CFU/wound site) 12 h p.i. (S. aureus NRS 384; Study II, 1000 μM, once a day): 5.44 ± 0.94 Ig(CFU/wound site); Ig(CFU/wound site) 24 h p.i. (S. aureus NRS 384; Study II, 1000 μM, once a day): 5.81 ± 1.79 Ig(CFU/wound site); ΔIg(CFU/wound site) vs 12 h infection control (S. aureus NRS 384; Study II, 1000 μM, once a day): −3.15 ± 0.94 Ig(CFU/wound site); ΔIg(CFU/wound site) vs 24 h infection control (S. aureus NRS 384; Study II, 1000 μM, once a day): −3.06+1.79** Ig(CFU/wound site); antimicrobial activity towards the gram +ve species Enterococcus faecalis and Staphylococcus aureus (in words) [2]: strong antimicrobial activity
CCCCCCCCCCCCCCCCCC[N+](C)(C)CCOCCO.[Br-] [Compound 39637_105543]	6.3	10.58^ μM	62.65^ μM	53.54 µM	42.96	3.20^ μM	6.25	1.57	25	+infinity	6.3	1.57	3.16	–
CCCCCCCCCCCCCCCCCC[N+](C)(C)CCOCCO.[Br-] [Compound 39637_109466]	6.3	10.78^ μM	16.81^ μM	62.14^ μM	59.94	2.59^ μM	6.25	1.57	25	2.06 µM	6.3	1.57	3.05	MBC EF51299 [16]: 1.57 µM; MBC KL1 [17]: 50 µM
CCCCCCCCCCCC[N+](C)(C)CCOCCO.[Br-] [Compound 40597_109444]	100	0.94 µM	27.19^ μM	2.84 µM	–	1.63^ μM	–	–	–	0.01 µM	100	–	–	–
CCCCCC[N+](C)(C)CCOCCO.[Br-] [Compound 40598_109448]	>100	–	–	0.06 µM	0.83	Unstable	–	–	–	48.98 µM	>100	–	1.93	–
CC(=O)O[C@H]1C[C@@]2(C)[C@@H](C[C@@H](O)[C@H]3[C@@]4(C)CC[C@@H](O)[C@@H](C)[C@@H]4CC[C@@]32C)/C1=C(\CCC=C(C)C)C(=O)O [fusidic acid]	–	–	–	–	–	–	–	–	–	–	–	–	–	MIC ([5]; Table 21 (Example 8), Enterococcus faecalis EF51299, read-out: MIC Concentration): 5 µM (≈ 2.58 µg/mL); MIC [18]: 0.04 µM (≈ 0.0207 µg/mL); MIC ([8]; Table 21 (Example 8), Enterococcus faecalis EF19433, read-out: MIC Concentration): 5 µM (≈ 2.58 µg/mL); MIC ([15]; ATCC29213, Table 21 (Example 8), Staphylococcus aureus 29213, read-out: MIC Concentration): 0.04 µM (≈ 0.0207 µg/mL)
